# How the values were obtained:
# [1] = molecular target: Gamma-aminobutyric acid receptor subunit alpha-6 (Homo sapiens, UniProt Q16445)
# [2] = molecular target: T1, Gamma-aminobutyric acid receptor subunit alpha-1 (Homo sapiens, UniProt P14867)
# T1 sequence (P14867 whole entry): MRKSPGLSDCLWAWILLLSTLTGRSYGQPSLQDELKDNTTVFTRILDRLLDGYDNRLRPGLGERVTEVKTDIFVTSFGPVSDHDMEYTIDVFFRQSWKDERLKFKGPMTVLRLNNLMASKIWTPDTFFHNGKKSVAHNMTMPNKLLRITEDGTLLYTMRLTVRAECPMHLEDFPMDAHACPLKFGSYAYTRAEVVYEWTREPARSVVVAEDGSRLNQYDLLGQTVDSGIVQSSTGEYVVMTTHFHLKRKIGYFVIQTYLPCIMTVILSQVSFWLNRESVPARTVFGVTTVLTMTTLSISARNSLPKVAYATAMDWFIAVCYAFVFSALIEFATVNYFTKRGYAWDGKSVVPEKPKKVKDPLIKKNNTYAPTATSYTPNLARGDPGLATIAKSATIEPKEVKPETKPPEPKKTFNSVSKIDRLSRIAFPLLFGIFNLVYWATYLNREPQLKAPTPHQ
# Gamma-aminobutyric acid receptor subunit alpha-6, sequence (Q16445 whole entry): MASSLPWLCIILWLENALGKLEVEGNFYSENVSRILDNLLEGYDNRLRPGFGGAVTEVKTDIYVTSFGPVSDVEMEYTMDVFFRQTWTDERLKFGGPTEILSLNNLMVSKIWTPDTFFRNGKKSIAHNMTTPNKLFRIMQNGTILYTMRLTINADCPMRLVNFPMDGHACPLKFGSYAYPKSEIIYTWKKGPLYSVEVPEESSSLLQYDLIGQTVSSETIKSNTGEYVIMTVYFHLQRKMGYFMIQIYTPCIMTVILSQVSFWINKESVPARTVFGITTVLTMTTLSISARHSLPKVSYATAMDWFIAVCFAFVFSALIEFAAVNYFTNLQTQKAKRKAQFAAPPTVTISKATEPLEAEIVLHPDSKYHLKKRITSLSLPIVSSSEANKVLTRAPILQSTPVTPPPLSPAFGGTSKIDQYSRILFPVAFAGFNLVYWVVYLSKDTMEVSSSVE
SMILES,Ki [1],Ki [2]
CN1C(=O)CN=C(c2ccccc2)c2cc(Cl)ccc21,> 10000 nM,
Cc1nnc2ccc(-c3cccc(C(F)(F)F)c3)nn12,> 10000 nM,89.5 nM
COC(=O)c1cc2c(cn1)[nH]c1ccccc12,2050 nM,1 nM
"CC(C)(C)OC(=O)c1ncn2c1C1CCCN1C(=O)c1c(Br)cccc1-2 (stereo not drawn) [8-Bromo-7-oxo-3b,4,5,6-tetrahydro-7H-2,6a,11b-triaza-benzo[g]cyclopenta[e]azulene-3-carboxylic acid tert-butyl ester]",12.7 nM,
Cc1ccc(-c2nc3ccc(C)cn3c2CC(=O)N(C)C)cc1 [Ambien],> 10000 nM,
CC(C)c1nc(-c2ncn3c2CN(C)C(=O)c2c(Cl)cccc2-3)no1 [FG 8205],227 nM,0.68 nM
Cc1nnc2n1-c1ccc(Cl)cc1C(c1ccccc1Cl)=NC2 [Halcion],> 10000 nM,
CCc1c(C(=O)OC)ncc2[nH]c3cc(OC)c(OC)cc3c12 [NSC_104999],134 nM,11.2 nM
CCOC(=O)c1ncn2c1CN(C)C(=O)c1cc(N=[N+]=[N-])ccc1-2 [RO-154513],,2.6 nM
